# In US9920056B2, “2-oxo-1,3,8-triazaspiro[4.5]decan-3-yl] carboxylic acid derivatives” (Eli Lilly and Company, priority 2015, dated 2018):
# How the values were obtained:
# male c57BL/6 mice [1] = assay: Oral Glucose Tolerance Test (OGTT): glucose and active GLP-1; assay type: in vivo, mouse; settings: for Active GLP-1 Fold Increase / Glucose % Lowering: vs vehicle
# Protocol: Maintain mice under approved Animal Care and Use protocols for Lilly Research Laboratories and house on a 12 hour light cycle from 6 am to 6 pm. For the OGTT, fast the mice between 3 & 4 pm. The following day at 6 am, measure body weights and collect baseline blood samples via tail vein for glucose (Roche Aviva glucometer). […] No. […] No. DPP-4)/aprotinin (Fisher BioReagents, Cat. No. BP250310), store on wet ice, spin down (3500 rpm, 4° C.), draw off plasma, plate and freeze. […] No. […]-2). Calculate area under the curve (AUC) values.
# mouse SSTR5 = molecular target: T1, mouse SSTR5 (Mus musculus, UniProt O08858); assay: Somatostatin binding assay (SPA, 125I-Somatostatin 14), mouse SSTR5 membranes; settings: transiently expressed mouse SSTR5 membranes, 0.25 nM [125I]-Somatostatin 14
# T1 construct: expressed in transfected cells; host or cells: probably CHO ('CHO-SSTR5 receptors')
# T1 sequence (O08858 1-362): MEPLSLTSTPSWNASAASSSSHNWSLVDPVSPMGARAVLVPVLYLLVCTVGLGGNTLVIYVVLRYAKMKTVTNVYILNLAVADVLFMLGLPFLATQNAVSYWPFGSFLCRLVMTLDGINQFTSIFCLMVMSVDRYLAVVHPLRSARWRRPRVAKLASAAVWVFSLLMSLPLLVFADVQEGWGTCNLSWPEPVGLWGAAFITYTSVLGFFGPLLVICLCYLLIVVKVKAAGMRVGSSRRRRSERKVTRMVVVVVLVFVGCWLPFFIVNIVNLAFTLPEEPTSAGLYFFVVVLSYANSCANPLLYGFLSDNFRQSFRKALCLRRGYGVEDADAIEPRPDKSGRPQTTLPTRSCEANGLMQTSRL
# Protocol: (§1) The antagonistic effect of the compound of Example 2 can be evaluated in human and mouse SSTR5 binding assays utilizing a scintillation proximity assay (SPA) format for a concentration response curve (CRC) (^125I-Somatostatin 14 binding to CHO-SSTR5 receptors). Perform measurement of SSTR5 binding utilizing either human somatostatin 5 membranes (manufactured by Perkin Elmer (ES-522-M400UA)) at a concentration of 0.4 μg/well or transiently expressed mouse SSTR5 membranes (generated in-house using Lipofectamine 2000 according to the manufacture's protocol (Life Technologies)) at a concentration of 8 μg/well. Homogenize membranes or dilute in buffer (prepare buffer from 25 mM HEPES (manufactured by HyClone), 5 mM MgCl2 (manufactured by Sigma), 1 mM CaCl2 (manufactured by Sigma), 0.5% BSA, pH 7.4 (manufactured by Gibco)).
# male c57BL/6 mice [2] = assay: GLP-1 secretion in vivo, 12 hour PK/PD study; set-up: species or system mouse; settings: for Active GLP-1 AUC Fold Increase: vs vehicle
# Protocol: Use male c57BL/6 mice from Harlan Laboratories at 8-9 weeks of age to evaluate the effects of the compound of Example 2 on GLP-1 Secretion in vivo during a 12 hour pharmacokinetic/pharmacodynamic (PK/PD) study. Maintain mice under approved Animal Care and Use protocols for Lilly Research Laboratories and house on a 12 hour light cycle from 6 am to 6 pm. The day prior to the evaluation, fast the mice at 6 pm. The following day at 6 am, measure body weight and administer vehicle (HEC 1%/Tween 80 0.25%/Antifoam 0.05%) or the compound of Example 2 alone in vehicle (HEC 1%/Tween 80 0.25%/Antifoam 0.05% suspension). Collect blood samples for measurement of active GLP-1 levels and plasma exposure (˜150 μl into EDTA coated Sarstedt Microvette® CB300 K2E tubes) at 0.25, 0.5, 1, 2, 4, 6, 9, 12 hours post-administration (only two samples collected from each mouse, euthanizing immediately following the second blood collection) Immediately after collecting the blood, preserve active GLP-1 samples with 5 μl of a mixture of DPP4 inhibitor (Bio Trend Cat. No. DPP-4)/aprotinin (Fisher BioReagents, Cat. No. BP250310), store on wet ice, spin down (3500 rpm, 4° C.). Draw off plasma, plate and freeze. Store GLP-1 samples at −80° C. until they can be analyzed utilizing a Meso Scale Discovery Active GLP-1 (v2) Kit (Cat. No. K150JWC-2). Calculate area under the curve (AUC) values.
# hSSTR5 [3] = molecular target: T2, hSSTR5 (Homo sapiens, UniProt P35346); assay: Somatostatin binding assay (SPA, 125I-Somatostatin 14), human SSTR5 membranes; set-up: purchased Perkin Elmer ES-522-M400UA; host or cells: CHO (the text speaks of CHO-SSTR5 receptors); settings: human somatostatin 5 membranes, 0.25 nM [125I]-Somatostatin 14
# T2 sequence (P35346 whole entry): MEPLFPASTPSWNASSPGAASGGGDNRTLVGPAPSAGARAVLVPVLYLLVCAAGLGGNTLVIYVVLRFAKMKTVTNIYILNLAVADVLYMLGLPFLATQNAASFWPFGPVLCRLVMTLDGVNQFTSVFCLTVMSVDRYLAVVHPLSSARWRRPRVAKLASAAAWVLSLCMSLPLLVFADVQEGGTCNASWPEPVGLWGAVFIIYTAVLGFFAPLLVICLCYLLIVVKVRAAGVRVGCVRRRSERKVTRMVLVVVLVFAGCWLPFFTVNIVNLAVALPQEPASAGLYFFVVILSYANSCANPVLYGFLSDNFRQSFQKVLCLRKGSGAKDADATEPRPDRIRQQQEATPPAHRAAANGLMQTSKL
# Protocol: as §1
# hSSTR5 [4] = molecular target: T2, hSSTR5; assay: β-Arrestin whole cell functional assay (PathHunter CHO-K1 hSSTR5 β-arrestin cells); assay type: cell-based; set-up: host or cells: CHO-K1 (PathHunter engineered line); settings: EC80 agonist 37.5 nM SST14
# Protocol: A β-arrestin whole cell, functional assay, utilizing U20S cells (human osteosarcoma cells), can directly measure effects of the compound of Example 2 on GPCR activity by determining its effects on the interaction of β-arrestin with the activated GPCR. Perform the CRC measurement of β-arrestin activity utilizing PathHunter CHO-K1 hSSTR5 β-arrestin cells from DiscoveRx (93-0402C2). Plate cells at a concentration of 5K/well in 50 μl of assay plating media in 384-well White Plates with opaque bottom (manufactured by Corning (3570)) and incubate overnight at 37° C./5% CO2. Prepare test solutions by diluting 3 μl of Example 2 with 27 μl of DMSO for a step down dilution. Mix the diluted plate of the current invention on a plate shaker for five minutes. Wash cells with 50 μl of PBS (manufactured by HyClone) three times using a plate washer. After washing, use a Wellmate to add 15 μl of assay buffer (assay buffer prepared from HBSS (manufactured by HyClone), 20 mM HEPES (manufactured by HyClone) with 0.1% BSA (manufactured by Gibco)) to the cells followed by 100 nl of the present invention serial dilution. Incubate the cells at 37° C./5% CO2 for 30 min.
# [5] = Example 1 0.3 mg/kg orally 90 min before glucose bolus
# [6] = Example 1 30 mg/kg orally 90 min before glucose bolus
# [7] = Sitagliptin 10 mg/kg orally 90 min before glucose bolus
smiles,measurement,setting,value
"CCOc1cc(CN2CCC3(CC2)CN(c2ccc(C(=O)O)cc2)C(=O)N3)c(C2CC2)cc1C.Cl [Example 1, 4-[8-[(2-Cyclopropyl-5-ethoxy-4-methyl-phenyl)methyl]-2-oxo-1,3,8-triazaspiro[4.5]decan-3-yl]benzoic acid hydrochloride]",Active GLP-1 AUC (0-60 min),male c57BL/6 mice [1]; [5],93.2 ± 15.5 pg/mL-min
same,Glucose AUC (0-60 min),male c57BL/6 mice [1]; [5],7441 ± 612 mg·min/dL
same,Active GLP-1 Fold Increase,male c57BL/6 mice [1]; Example 1 0.3 mg/kg orally,1.8
same,Glucose % Lowering,male c57BL/6 mice [1]; Example 1 0.3 mg/kg orally,23%
same,Active GLP-1 AUC (0-60 min),male c57BL/6 mice [1]; [6],151 ± 14.0 pg/mL-min
same,Glucose AUC (0-60 min),male c57BL/6 mice [1]; [6],5674 ± 360 mg·min/dL
same,Active GLP-1 Fold Increase,male c57BL/6 mice [1]; Example 1 30 mg/kg orally,2.9
same,Glucose % Lowering,male c57BL/6 mice [1]; Example 1 30 mg/kg orally,41%
same,effect on GLP-1 in OGTT (in words),male c57BL/6 mice [1]; OGTT in mice,increased GLP-1 activity
same,effect on glucose in OGTT (in words),male c57BL/6 mice [1]; OGTT in mice,glucose lowering effect
"CCOc1cc(CN2CCC3(CC2)CN(c2ccc(C(=O)O)cc2)C(=O)N3)c(C2CC2)cc1C [Example 2, 4-[8-[(2-Cyclopropyl-5-ethoxy-4-methyl-phenyl)methyl]-2-oxo-1,3,8-triazaspiro[4.5]decan-3-yl]benzoic acid hydrate]",Ki,mouse SSTR5,4.87 nM
same,Active GLP-1 AUC (0-12 hours),"male c57BL/6 mice [2]; 0.3 mg/kg, fasted mice",60.2 ± 2.9 pg/mL-hour
same,Active GLP-1 AUC Fold Increase,male c57BL/6 mice [2]; 0.3 mg/kg,1.9
same,Active GLP-1 AUC (0-12 hours),"male c57BL/6 mice [2]; 1 mg/kg, fasted mice",71.2 ± 3.3 pg/mL-hour
same,Active GLP-1 AUC Fold Increase,male c57BL/6 mice [2]; 1 mg/kg,2.2
same,Active GLP-1 AUC (0-12 hours),"male c57BL/6 mice [2]; 3 mg/kg, fasted mice",72.5 ± 4.3 pg/mL-hour
same,Active GLP-1 AUC Fold Increase,male c57BL/6 mice [2]; 3 mg/kg,2.3
same,Active GLP-1 AUC (0-12 hours),"male c57BL/6 mice [2]; 10 mg/kg, fasted mice",87.3 ± 3.8 pg/mL-hour
same,Active GLP-1 AUC Fold Increase,male c57BL/6 mice [2]; 10 mg/kg,2.7
same,Active GLP-1 AUC (0-12 hours),"male c57BL/6 mice [2]; 30 mg/kg, fasted mice",86.3 ± 4.6 pg/mL-hour
same,Active GLP-1 AUC Fold Increase,male c57BL/6 mice [2]; 30 mg/kg,2.7
same,effect on active GLP-1 (in words),"male c57BL/6 mice [2]; fasted mice, no glucose load",non-glucose dependent effect to increase active GLP-1
same,Ki,hSSTR5 [3],0.54 nM
same,IC50,hSSTR5 [4],0.81 nM
"N[C@@H](CC(=O)N1CCn2c(nnc2C(F)(F)F)C1)Cc1cc(F)c(F)cc1F [Sitagliptin, sitagliptin, reference compound]",Active GLP-1 AUC (0-60 min),male c57BL/6 mice [1]; [7],343 ± 73 pg/mL-min
same,Glucose AUC (0-60 min),male c57BL/6 mice [1]; [7],5308 ± 237 mg·min/dL
same,Active GLP-1 Fold Increase,male c57BL/6 mice [1]; Sitagliptin 10 mg/kg orally,6.6
same,Glucose % Lowering,male c57BL/6 mice [1]; Sitagliptin 10 mg/kg orally,45%
